Experimental data as given in patent publication US8242166B2, “C(10) ethyl ester and C(10) cyclopropyl ester substituted taxanes” (Florida State University Research Foundation, Inc., priority 2008, dated 2012).
Like-named read-outs stand apart in the source and are kept apart here.

Key:
PANC-1 = test: MTT cytotoxicity (IC50), PANC-1; assay type: cell-based; conditions: Homo sapiens, 72 h, read-out: IN Vitro IC50 (nm) Panc
Summary of the method: (§1)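 Seventy-two-hour MTT assay in RPMI-1640 medium: triplicate wells per concentration, seven 2-fold dilutions, 570 nm read-out.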

[1] = test system: HT29 human tumor xenografts; test: HT29 xenograft study e139 (Example 23); assay type: in vivo, nude mice
DLD-1 = test: MTT cytotoxicity (IC50), DLD-1; assay type: cell-based; conditions: Homo sapiens
Summary of the method: as §1

[2] = test system: HT29 human tumor xenografts; test: HT29 xenograft study e212, oral and i.v. (Example 26); conditions: 25 mg/kg iv qwk × 3
Description: (§2) The formulation for oral studies was an ethanol and Cremophor formulation while the formulation for compound 18365 and compound 19244 dosed i.v. was 5% ethanol and 95% Liposyn II 20%.

TK-10 = test: MTT cytotoxicity (IC50), TK-10; assay type: cell-based; conditions: Homo sapiens, 72 h, read-out: IN Vitro IC50 (nm) TK10
Summary of the method: as §1

BxPC-3 cancer cell line = test: MTT cytotoxicity (IC50), BxPC-3 (Oncodesign); assay type: cell-based; conditions: Homo sapiens
Description: BxPC-3 cancer cell line (Source ATCC) and culture medium were purchased and provided by Oncodesign (France).
Tumor cells (5,000 cells per well) were plated in 96-well flat-bottom microtitration plates (Ref 167008, Batch 083310, Nunc, Dutscher, Brumath, France) and incubated at 37° C. for 24 hours before treatment in 100 μl of drug-free RPMI 1640 medium supplemented with 10% FBS. Tumor cell lines were incubated for 72 hours with 10 concentrations of both test substances and TXT (40 to 0.07 nM using ½ step dilutions). Experiments were repeated three times, each assay being issued from quadruplicate. Control cells were treated with the vehicle alone. At the end of treatments, the cytotoxic activity was evaluated by a MTT assay. These studies were conducted at Oncodesign, France.

[3] = test system: HT29 human tumor xenografts; test: HT29 xenograft study e210, oral and i.v. (Example 25); conditions: 25 mg/kg iv qwk × 3
Description: as §2

SK-MEL-28 = test: MTT cytotoxicity (IC50), SK-MEL-28; assay type: cell-based; conditions: Homo sapiens, 72 h, read-out: IN Vitro IC50 (nm) ske-mel28
Summary of the method: as §1

SNB-19 = test: MTT cytotoxicity (IC50), SNB-19; assay type: cell-based; conditions: Homo sapiens, 72 h, read-out: IN Vitro IC50 (nm) SNB19
Summary of the method: as §1

HT29 = test: MTT cytotoxicity (IC50), HT29; assay type: cell-based; conditions: Homo sapiens, HT-29, 72 h, read-out: IN Vitro IC50 (nm) HT29
Summary of the method: as §1

OVCAR4 = test: MTT cytotoxicity (IC50), OVCAR4; assay type: cell-based; conditions: Homo sapiens, OVCAR-4, 72 h, read-out: IN Vitro IC50 (nm) OVCAR4
Summary of the method: as §1

A375 = test: MTT cytotoxicity (IC50), A375; assay type: cell-based; conditions: Homo sapiens, A-375
Summary of the method: as §1

[4] = test system: human MX-1 breast carcinoma; test: MX1 xenograft study e219R1, i.v. single dose (Example 17)
OVCAR5 = test: MTT cytotoxicity (IC50), OVCAR5; assay type: cell-based; conditions: Homo sapiens, OVCAR-5, 72 h, read-out: IN Vitro IC50 (nm) OVCAR5
Description: Compound 17932 was tested in four of these cell lines, while the remaining compounds were tested in all of these cell lines. All cell lines were maintained in RPMI-1640 tissue culture medium (TCM, supplemented with antibiotics and 10% fetal bovine serum) and cultured at 37° C. in humidified air containing 5% CO2. To assess the antiproliferative effects of the test compounds, 172 μL of tumor cell suspension (1.45×10^4 cells/ml) were added to each well of a 96-well plate and incubated for 24 h at 37° C. in 5% CO2 in air to allow cells to adhere. Seven 2-fold drug dilutions in TCM/DMSO were performed in triplicate in separate 96-well plates and 28 μL was transferred to the wells containing tumor cells (200 μL final volume/0.1% DMSO). Plates were incubated for 72 h and cell viability was determined by adding 50 μL of warm TCM containing 5 mg/mL MTT (3-[4,5-dimethylthiazol-2-yl]-2,5-diphenyltetrazolium bromide) to each well and incubating for 1 h at 37° C. Plates were processed and the absorbances of the resulting solutions were measured by a plate reader at 570 nm. […] (GraphPad Prism version 4.00 for Windows). Studies were conducted by Taxolog, Inc., Tallahassee, Fla.

CC(=O)O[C@@]12CO[C@@H]1C[C@H](O)[C@@]1(C)C(=O)[C@H](O)C3=C(C)[C@@H](OC(=O)[C@H](O)[C@@H](NC(=O)OC(C)(C)C)c4ccccc4)C[C@@](O)([C@@H](OC(=O)c4ccccc4)[C@H]21)C3(C)C [Docetaxel, docetaxel, reference compound]
IC50 (PANC-1): 1.9 nM
Day 54 mm^3 (tumor size) ([1]; 25 mg/kg iv q7d × 3): 180.6 mm^3
Max. BW Loss %; Day ([1]; 25 mg/kg iv q7d × 3): −14.4%; Day 19
Number of Death NTR ([1]; 25 mg/kg iv q7d × 3, N=6): 0
Number of Death TR ([1]; 25 mg/kg iv q7d × 3, N=6): 0
TGD ([1]; 25 mg/kg q7d×3): 210%
group mean body-weight (BW) loss ([1]; 25 mg/kg q7d×3): 14.4%
MTV (Day 61) ([1]; 25 mg/kg q7d×3, five mice): 196 mm^3
LTTFS ([1]; 25 mg/kg q7d×3, six mice): 1
PR responses ([1]; 25 mg/kg q7d×3, six mice): 5
IC50 (DLD-1; MTT, 72 h, read-out: IN Vitro IC50 (nm) DLD1): > 10 nM
IC50 (DLD-1; Resistance MDR1+, read-out: DLD1 Colon (Table 4, quantity not named; IC50 values as Table 2)): 20 nM
CR (complete regression) ([2]; n=6): 0
NTR NTRm ([2]; n=6): 0
PR (partial regression) ([2]; n=6): 3
TFS (tumor-free survivor) ([2]; n=6): 0
TR (treatment-related death) ([2]; n=6): 0
% TGD ([2]; vehicle ET): 237.14%
MTV (n), Day 59 ([2]; vehicle ET): 600.00 (6) mm^3
Median TTE ([2]; vehicle ET): 59 days
T-C ([2]; vehicle ET): 41.5 days
IC50 (TK-10): 1.4 nM
IC50 (BxPC-3 cancer cell line; BXPC-3, 72 h, Exp 1, MTT, 72 hours, read-out: IC50 (nM) BxPC-3): 0.93 nM
IC50 (BxPC-3 cancer cell line; BXPC-3, 72 h, Exp 2, MTT, 72 hours, read-out: IC50 (nM) BxPC-3): 2.2 nM
IC50 (BxPC-3 cancer cell line; BXPC-3, 72 h, Exp 3, MTT, 72 hours, read-out: IC50 (nM) BxPC-3): 0.73 nM
IC50 (BxPC-3 cancer cell line; BXPC-3, mean of 3 experiments, read-out: IC50 Mean ± SD (nM) BxPC-3): 1.29 ± 0.8 nM
% TGD [3]: 214.3%
MTV (n), Day 60 [3]: 40.00 (6) mm^3
Median TTE [3]: 60 days
T-C [3]: 40.91 days
CR (complete regression) ([3]; n=6): 4
NTR NTRm ([3]; n=6): 0
PR (partial regression) ([3]; n=6): 2
TFS (tumor-free survivor) ([3]; n=6): 2
TR (treatment-related death) ([3]; n=6): 0
IC50 (SK-MEL-28): 2.1 nM
IC50 (SNB-19): 1.9 nM
IC50 (HT29): 1.3 nM
IC50 (OVCAR4): 1.4 nM
IC50 (A375; MTT, 72 h, read-out: IN Vitro IC50 (nm) A375): 2.4 nM
IC50 (A375; Resistance MRP9, read-out: A375 Melanoma (Table 4, quantity not named; IC50 values as Table 2)): 2.4 nM
% TGD ([4]; 25 mg/kg iv qd × 1): 89.79%
BW Nadir ([4]; 25 mg/kg iv qd × 1): −10.2% (5)
MTV (n), Day 60 ([4]; 25 mg/kg iv qd × 1): 0.00 (5) mm^3
Median TTE ([4]; 25 mg/kg iv qd × 1): 61 days
T-C ([4]; 25 mg/kg iv qd × 1): 28.86 days
CR (complete regression) ([4]; 25 mg/kg iv qd × 1, n=5): 5
NTR (non-treatment-related death) ([4]; 25 mg/kg iv qd × 1, n=5): 0
PR (partial regression) ([4]; 25 mg/kg iv qd × 1, n=5): 0
TFS (tumor-free survivor) ([4]; 25 mg/kg iv qd × 1, n=5): 4
TR (treatment-related death) ([4]; 25 mg/kg iv qd × 1, n=5): 0
group mean weight loss ([4]; 25 mg/kg qd×1): 10.2%
transient CR ([4]; 25 mg/kg qd×1, n=5): 1
IC50 (OVCAR5): 1.1 nM
